These are literature values, as cited in patent publication US20250288604A1, “SUGAR-CONJUGATED LIPID NANOPARTICLES FOR TARGETED DELIVERY OF SIRNA TO HEPATOCYTES” (University of Virginia Patent Foundation, priority 2022, published 2025).

For this data set the following is noted: single ionizable lipid.

With `CCCCCCCCCCCOC(=O)CCCCCN(CCO)CCCCCCCC(=O)OC(CCCCCCCC)CCCCCCCC` [SM-102], the pKa is listed as 6.75.

Regarding `CCCCC/C=C\C/C=C\CCCCCCCCC(CCCCCCCC/C=C\C/C=C\CCCCC)OC(=O)CCCN(C)C` [DLinMc3DMA, (6Z,9Z,28Z,31Z)-Heptatriaconta-6,9,28,31-tetraen-19-yl 4-(dimethylamino) butanoate], the pKa is reported as 6.44.

Consider `CCCCCCCCC(CCCCCC)C(=O)OCCCCCCN(CCCCO)CCCCCCOC(=O)C(CCCCCC)CCCCCCCC` (stereo not drawn) [ALC-0315], for which the pKa is reported as 6.09.
